{"source": "patent US11426422B2", "about": "“SHP2 inhibitors and methods of use thereof” (Research Development Foundation, priority 2018, dated 2022)", "key": {"IR in liver sections": {"test_system": "IR in liver sections", "test": "IR staining at the PM in liver sections of HFD-fed mice", "format": "in vivo", "conditions": "60 mg/kg oral for 6 days", "procedure": "(§1) (FIG. 3A) Glucose tolerance test in 14 h fasted male mice fed a HFD for 5 weeks. […] At 1 day after drug treatment, glucose tolerance test was performed. Mean±SEM. (FIG. 3B) Insulin tolerance test of mice treated as described in FIG. 3A. Mean±SEM. […] The liver sections were stained with anti-IR (red) and DAPI (blue). Scale bars, 5 μm. (FIG. 3D) Quantification of the ratios of PM and IC IR signals of the livers in C (mean±SD; *p<0.0001). […] Cell lysates were blotted with the indicated antibodies.\nThe IR staining at the PM in liver sections from mice fed with HFD was weak, and insulin stimulation further reduced it and caused IR endocytosis (FIGS. 3C and D).\nThe fixation, histological analysis, and immunohistochemistry of mouse tissues were performed as described previously (Choi et al., 2016). For human patient sample analysis, the deparaffinized sections were subjected to antigen retrieval with 10 mM sodium citrate (pH 6.0), incubated with 0.3% H2O2, blocked with 0.3% BSA, and then incubated first with anti-IR (CT3, Millipore®, 1:100) and anti-ZO1 (Thermo Scientific®, 1:200) antibodies and then with secondary antibodies (AlexaFluor® 568 goat anti-mouse and AlexaFluor® 488 goat anti-rabbit; Molecular Probes®). […] The total cell numbers and numbers of IR PM-positive cells were counted at least twice for individual images. Over 100 cells were analyzed for each patient samples. […]"}, "primary hepatocytes": {"test_system": "primary hepatocytes", "test": "insulin signaling in primary hepatocytes (quantitative Western blot)", "format": "cell-based, mice", "conditions": "10 μM for 2 h, then 100 nM insulin", "procedure": "as §1\nTo examine the effect of SHP2 inhibition on insulin signaling in freshly isolated primary hepatocytes, the activating phosphorylation of IR (pY1189/1190), AKT (pT308), and ERK1/2 (pT202/Y204, pERK1/2) in the hepatocytes was monitored (FIG. 3E and FIG. 8B).\nPrimary hepatocytes were isolated from 2-month-old female mice with a standard two-step collagenase perfusion procedure. Cells were plated on collagen-coated dishes and incubated in attachment medium (Williams' E Medium supplemented with 5% (v/v) FBS, 10 nM insulin, 10 nM dexamethasone, and 1% (v/v) penicillin/streptomycin). After 2-4 h, the medium was changed to low-glucose DMEM supplemented with 5% (v/v) FBS, 10 nM dexamethasone, 10 nM insulin, 100 nM triiodothyronine, and 1% (v/v) penicillin/streptomycin.\nCells were incubated with the cell lysis buffer [50 mM HEPES (pH 7.4), 150 mM NaCl, 10% (v/v) Glycerol, 1% (v/v) Triton X-100, 1 mM EDTA, 100 mM sodium fluoride, 2 mM sodium orthovanadate, 20 mM sodium pyrophosphate, 0.5 mM dithiothreitol (DTT), 2 mM phenylmethylsulfonyl fluoride (PMSF)] supplemented with protease inhibitors (Roche®) and PhosSTOP™ (Roche®) on ice for 1 h. The cell lysates were cleared by centrifugation and incubated with antibody-conjugated beads. The beads were washed, and the bound proteins were eluted with the SDS sample buffer and analyzed by SDS-PAGE and Western blotting. For quantitative Western blots, anti-rabbit immunoglobulin G (IgG) (H+L) (Dylight 800 or 680 conjugates) and anti-mouse IgG (H+L) (Dylight 800 or 680 conjugates) (Cell Signaling) were used as secondary antibodies. […]"}}}
{"molecule": "CC1(N)CCN(c2cnc(-c3cccc(Cl)c3Cl)c(N)n2)CC1", "note": "[SHP099]", "values": [{"measurement": "insulin-activated IR endocytosis in liver", "setting": "IR in liver sections; 5 U insulin via inferior vena cava", "result": "blocked insulin-activated IR endocytosis"}, {"measurement": "IR signal at the PM in liver", "setting": "IR in liver sections; in the absence of insulin", "result": "elevated the IR signal at the PM"}, {"measurement": "activation of the MAPK pathway by insulin (pERK1/2)", "setting": "primary hepatocytes", "result": "inhibited the activation of the MAPK pathway by insulin"}, {"measurement": "insulin-triggered activating phosphorylation of AKT (pT308)", "setting": "primary hepatocytes", "result": "significantly increased and prolonged"}, {"measurement": "insulin-triggered activating phosphorylation of IR (pY1189/1190)", "setting": "primary hepatocytes", "result": "significantly increased and prolonged"}]}
